{"source": "patent US20140010801A1", "about": "“Compositions and Methods for Restoring or Rejuvenating Stem/Progenitor Cell Function” (UNIVERSITY OF PITTSBURGH - OF THE COMMONWEALTH SYSTEM OF …, priority 2012, published 2014)", "key": {"Ercc1^−/− MEFs": {"tested_on": "Ercc1^−/− MEFs", "test": "Reversal of senescence (SA-β-gal+) of Ercc1−/− MEFs", "assay_type": "cell-based, mouse", "conditions": "within 24 hours of treatment", "protocol": "FIG. 19 depicts analysis of the ability of an IKK inhibitor (IKKiVII) to rescue senescence (SA-β-gal+) […] MEFs after 24 hours of treatment.\nTo determine whether NF-κB is activated by endogenous genotoxic stress, which arises as a consequence of normal metabolism, Ercc1^−/− primary cells and mice were used, which are defective in DNA repair were used. Phosphorylated p65 (p-p65) and IκB were measured in nuclear and cytoplasmic extracts from early passage, congenic Ercc1^−/− and WT primary MEFs by immunoblot, and there was a >2-fold increase in nuclear p-p65 in Ercc1^−/− MEFs compared to WT, which correlated with an increase in the level of phosphorylated IκB (p-IκB) in the cytoplasm. EMSA was used to confirm increased NF-κB binding in nuclear extracts of Ercc1^−/− MEFs, which was abrogated by pretreatment of the samples with an anti-p65 antibody. To determine whether premature senescence of Ercc1^−/− MEFs is NF-κB dependent, the growth of Ercc1^−/−; p65^−/− MEFs was compared to congenic Ercc1−/− MEFs. Ercc1^−/− MEFs have reduced proliferation and increased replicative senescence as measured by SA-β-Gal staining, γ-H2AX foci and p16 expression. […] Furthermore, the Ercc1^−/−; p65^−/− MEFs had reduced ROS compared to Ercc1 cells as determined by staining mitochondria with DiOC6 and superoxide anion with MitoSOX. […]"}, "aged WT MDSPCs": {"tested_on": "aged WT MDSPCs", "test": "Myogenic potential (fusion index) of aged MDSPCs under IKK-β inhibition", "assay_type": "cell-based, mouse", "design": "dose or concentration left out as unconfirmed", "conditions": "fusion conditions", "description": "Reduction of NF-κB enhances the myogenic differentiation potential and resistance to stress in MDSPCs isolated from naturally aged mice. To determine further whether the NF-κB signaling pathway plays a role in driving age-related stem cell dysfunction, whether pharmacologic inhibition of IKK-β would restore the myogenic potential of aged WT MDSPCs was examined. […] MDSPCs were isolated from 30 month old p65^+/− and 24 month old WT mice and compared the myogenic potential of 30 month old p65^+/− MDSPCs in vitro to naturally aged WT MDSPCs. The results confirmed that MDSPCs from p65^+/− aged mice (30 month) were more myogenic than MDSPCs from 24 month old WT mice."}, "Ercc1^−/Δ mice": {"tested_on": "Ercc1^−/Δ mice", "test": "Chronic XJB-5-131 treatment of Ercc1−/Δ mice", "assay_type": "in vivo, mouse"}}}
{"smiles": "O=C(c1ccc(Nc2nccc(-c3cc4ccccc4s3)n2)cc1)N1CCC(N2CCCC2)CC1", "note": "[IKKiVII]", "values": [{"measurement": "senescence of Ercc1^−/− MEFs (>60% of cells SA-βgal+)", "setting": "Ercc1^−/− MEFs", "value": "could be reversed"}]}
{"smiles": "NC(=O)Nc1sc(-c2ccc(F)cc2)cc1C(N)=O", "note": "[IKKβ inhibitor IV]", "values": [{"measurement": "fusion index of aged MDSPCs", "setting": "aged WT MDSPCs", "value": "significantly increased"}]}
{"smiles": "CC(C)C[C@@H](/C=C/[C@H](Cc1ccccc1)C(=O)N1CCC[C@H]1C(=O)N[C@H](C(=O)N[C@@H](CCCNC(=O)OCc1ccccc1)C(=O)NC1CC(C)(C)N([O])C(C)(C)C1)C(C)C)NC(=O)OC(C)(C)C", "note": "[XJB-5-131]", "values": [{"measurement": "onset of aging-related degenerative changes", "setting": "Ercc1^−/Δ mice", "value": "delay the onset"}]}
